Where a name gives a salt, the structure may show the parent alone. Read-outs that look alike come from different tables or passages of the source.
Columns and labels:
primary rat microglia [1] = experiment: Cell toxicity (dead cells, size <150 μm2) in coated fibrin (cFib) assay; details: primary microglia HTS;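 also: share of dead cells sized under 150 µm2 at 10 µM in fibrin-stimulated microglia HTS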
[2] = system: LPS-induced microglia activation; experiment: Image-based assay of LPS-induced microglia activation (HTS and dose response); assay type: cell-based, rat; details: for inhibition at 10 µM: Rattus norvegicus, Microglia, read-out: LPS % inhibition
[3] = system: fibrin-induced microglia activation; experiment: Image-based assay of fibrin-induced microglia activation (HTS and dose response); assay type: cell-based, rat; details: primary microglia HTS, fibrin stimulation; for inhibition at 10 µM: Rattus norvegicus, Microglia, read-out: Fibrin % inhibition
[4] = system: fibrin- and LPS-induced microglia activation; experiment: cells; assay type: cell-based, rat
primary rat microglia [5] = system: primary rat microglia
[6] = fibrin stimulation, cell size <150 μm2 as marker of toxicity
[7] = cell size >800 μm2 as marker of activation
[8] = classification by fibrin and LPS inhibition in HTS
[9] = fibrin assay, dead cells (size <150 μm2), compounds at 10 μM
[10] = primary microglia HTS, LPS stimulation, compounds at 10 μM
[11] = classification by fibrin and LPS inhibition, HTS at 10 μM
[12] = fibrin assay, dead cells (size <150 μm2)
[13] = quadrant by fibrin and LPS inhibition, HTS at 10 μM

Compound	Fibrin % cell toxicity (primary rat microglia [1]; [6]) [%]	Quadrant (FIG. 5b) [4, 8]	LPS % cell toxicity (primary rat microglia [5]; rat) [%]	Fibrin % cell toxicity (primary rat microglia [1]; [9]) [%]	inhibition at 10 µM [2, 10] [%]	inhibition at 10 µM ([3]; compounds at 10 μM) [%]	Quadrant (FIG. 5b) [4, 11]	Fibrin % cell toxicity (primary rat microglia [1]; [12]) [%]	Quadrant (FIG. 5b) [4, 13]	other results
CCC(NC(C)C)C(O)c1ccc(O)c2[nH]c(=O)ccc12 (centres unmarked) [Procaterol]	1	Q4	0							inhibition at 10 µM ([2]; 48 h): 21%; inhibition at 10 µM [3, 7]: 16%
NC(=O)OCC(COC(N)=O)c1ccccc1 [Felbamate]			0	1	0	-32	Q4			
CCCc1ncc(C[n+]2ccccc2C)c(N)n1 [Amprolium]			0		8	-10		1	Q4	
CCOc1cc(CC(=O)N[C@@H](CC(C)C)c2ccccc2N2CCCCC2)ccc1C(=O)O [Repaglinide]	1	Q4	0							inhibition at 10 µM ([2]; 48 h): 18%; inhibition at 10 µM [3, 7]: -14%
Acetophenazine Maleate								1	Q4	LPS % inhibition [2, 10]: 15%; Fibrin % inhibition ([3]; compounds at 10 μM): 34%; LPS % cell toxicity (primary rat microglia [5]): 0%
O=[N+]([O-])c1cc([As](=O)(O)O)ccc1O [Roxarsone]	1	Q4	1							LPS % inhibition [2]: 17%; Fibrin % inhibition [3, 7]: −18%
C=CCc1ccc(O)c(OC)c1 [Eugenol]			0	0	20	37	Q4			
O=C(O)CCC(=O)c1ccc(-c2ccccc2)cc1 [Fenbufen]			0	0	25	3	Q4			
CC1(C)O[C@@H]2C[C@H]3[C@@H]4CCC5=CC(=O)C=C[C@]5(C)[C@@]4(F)[C@@H](O)C[C@]3(C)[C@]2(C(=O)CO)O1 [Triamcinolone Acetonide]			4		104	111		4	Q2	
O=C(CNC(=O)c1ccc(Cl)cc1)NO [Benurestat]								1	Q4	LPS % inhibition [2, 10]: 22%; Fibrin % inhibition ([3]; compounds at 10 μM): 6%; LPS % cell toxicity (primary rat microglia [5]): 1%
NC(=O)C[S@@+]([O-])C(c1ccccc1)c1ccccc1 [Armodafinil]			1		19	-10		0	Q4	
CN(C)CC[C@@H](c1ccc(Br)cc1)c1ccccn1				0			Q4			LPS % inhibition [2, 10]: 10%; Fibrin % inhibition ([3]; compounds at 10 μM): 0%; LPS % cell toxicity (primary rat microglia [5]): 0%
CO[C@H]1/C=C/O[C@@]2(C)Oc3c(C)c(O)c4c(O)c(c(/C=N/N5CCN(C6CCCC6)CC5)c(O)c4c3C2=O)NC(=O)/C(C)=C\C=C\[C@H](C)[C@H](O)[C@@H](C)[C@@H](O)[C@@H](C)[C@H](OC(C)=O)[C@@H]1C [Rifapentine]	1	Q4	0							inhibition at 10 µM ([2]; 48 h): -7%; inhibition at 10 µM [3, 7]: -23%
Cc1ccc(-c2ncc(Cl)cc2-c2ccc(S(C)(=O)=O)cc2)cn1 [Etoricoxib]			0	1	-4	15	Q4			
CCOC(=O)COc1ccc2c(=O)cc(-c3ccccc3)oc2c1 [Efloxate]			0	1	-1	-8	Q4			
CC(C)(CO)[C@@H](O)C(=O)NCCCO [Dexpanthenol]			0	0	11	-1	Q4			
Cc1ccc(N(CC2=NCCN2)c2cccc(O)c2)cc1 [Phentolamine]	0	Q4	0							inhibition at 10 µM ([2]; 48 h): 17%; inhibition at 10 µM [3, 7]: -21%
C[C@@H]1O[C@@H](OC[C@H]2O[C@@H](Oc3c(-c4ccc(O)c(O)c4)oc4cc(O)cc(O)c4c3=O)[C@H](O)[C@@H](O)[C@@H]2O)[C@H](O)[C@H](O)[C@H]1O [Rutin]	1	Q4	0							inhibition at 10 µM ([2]; 48 h): 18%; inhibition at 10 µM [3, 7]: 1%
CC(=O)OC/C=C(C)/C=C/C=C(C)/C=C/C1=C(C)CCCC1(C)C [Retinyl Acetate]	1	Q4	0							inhibition at 10 µM ([2]; 48 h): 15%; inhibition at 10 µM [3, 7]: 3%
Cc1cnc(C(=O)O)c[n+]1[O-] [Acipimox]			0		20	-11		1	Q4	
CCC1(c2ccc(N)cc2)CCC(=O)NC1=O (racemic)								0	Q4	LPS % inhibition [2, 10]: 6%; Fibrin % inhibition ([3]; compounds at 10 μM): 3%; LPS % cell toxicity (primary rat microglia [5]): 0%
NCC(O)CC(=O)O (centres unmarked) [Aminohydroxybutyric Acid]								1	Q4	LPS % inhibition [2, 10]: 17%; Fibrin % inhibition ([3]; compounds at 10 μM): −4%; LPS % cell toxicity (primary rat microglia [5]): 0%
CN(C(=O)C(Cl)Cl)c1ccc(OC(=O)c2ccco2)cc1 [Diloxanide Furoate]			0	1	17	-3	Q4			
CCc1cn([C@H]2C[C@H](O)[C@@H](CO)O2)c(=O)[nH]c1=O [Edoxudine]			0	0	1	-10	Q4			
C=CC[N+]1([C@H]2C[C@H]3[C@@H]4CC[C@H]5C[C@H](O)[C@@H](N6CCOCC6)C[C@]5(C)[C@H]4CC[C@]3(C)[C@H]2OC(C)=O)CCCC1 [Rocuronium]	1	Q4	0							inhibition at 10 µM ([2]; 48 h): 5%; inhibition at 10 µM [3, 7]: -22%
CCN1CCCC(OC(=O)C(c2ccccc2)c2ccccc2)C1 (centres unmarked) [Piperidolate Hydrochloride]	0	Q4	0							inhibition at 10 µM ([2]; 48 h, primary microglia HTS, LPS stimulation, cell size >800 μm2 as marker of activation): 8%; inhibition at 10 µM [3, 7]: -21%
Cc1nc(-c2ccc(OCC(C)C)c(C#N)c2)sc1C(=O)O [Febuxostat]			0	1	10	3	Q4			
CC1(C)S[C@@H]2[C@H](NC(=O)[C@H](NC(=O)N3CCNC3=O)c3ccccc3)C(=O)N2[C@H]1C(=O)O [Azlocillin]			1					1	Q4	LPS % inhibition ([2]; primary microglia HTS, LPS stimulation, compounds at 10 μM, 10 µM): 6%; Fibrin % inhibition ([3]; compounds at 10 μM, 10 µM): −14%

From patent publication US20210330611A1, “THERAPY FOR NEUROLOGICAL DISEASES/DISORDERS” (priority 2020, published 2021)
